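Method: 48-hour compound exposure of cells in 96-well plates, five concentrations, linear interpolation of endpoints. Abbreviation: GI50, concentration required for 50% inhibition of growth. Definition used: TGI = concentration required for complete inhibition of growth.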
Experiments:
Assay in all cases: NCI anticancer screen, dose series, 48 h
SK-OV-3 ovarian = test system: SK-OV-3 ovarian
NCI/ADR-RES ovarian = test system: NCI/ADR-RES ovarian
OVCAR-5 ovarian = test system: OVCAR-5 ovarian
MOLT-4 leukemia = test system: MOLT-4 leukemia
HCC-2998 colon = test system: HCC-2998 colon
SF-268 CNS = test system: SF-268 CNS
SNB-19 CNS = test system: SNB-19 CNS
KM12 colon = test system: KM12 colon
OVCAR-8 ovarian = test system: OVCAR-8 ovarian
SK-MEL-28 melanoma = test system: SK-MEL-28 melanoma
U251 CNS = test system: U251 CNS
DU-145 prostate = test system: DU-145 prostate
HS 578T breast = test system: HS 578T breast
SK-MEL-5 melanoma = test system: SK-MEL-5 melanoma
LOX IMVI melanoma = test system: LOX IMVI melanoma
OVCAR-3 ovarian = test system: OVCAR-3 ovarian
NCI-H460 lung = test system: NCI-H460 lung
BT-549 breast = test system: BT-549 breast
OVCAR-4 ovarian = test system: OVCAR-4 ovarian
NCI-H226 lung = test system: NCI-H226 lung
MCF7 breast = test system: MCF7 breast
MDA-MB-435 = test system: MDA-MB-435
RPMI-8226 leukemia = test system: RPMI-8226 leukemia
COLO 205 colon = test system: COLO 205 colon
M14 melanoma = test system: M14 melanoma
HL-60(TB) leukemia = test system: HL-60(TB) leukemia
IGROV1 ovarian = test system: IGROV1 ovarian
UACC-257 melanoma = test system: UACC-257 melanoma
MALME-3M melanoma = test system: MALME-3M melanoma
PC-3 prostate = test system: PC-3 prostate
SF-295 CNS = test system: SF-295 CNS
K-562 leukemia = test system: K-562 leukemia
786-0 renal = test system: 786-0 renal
SN12C renal = test system: SN12C renal
SR leukemia = test system: SR leukemia
A549 NSCLC = test system: A549 NSCLC
UACC-62 melanoma = test system: UACC-62 melanoma
UO-31 renal = test system: UO-31 renal
HCT-116 colon = test system: HCT-116 colon
EKVX NSCLC = test system: EKVX NSCLC
RXF 393 renal = test system: RXF 393 renal
TK-10 renal = test system: TK-10 renal
SF-539 CNS = test system: SF-539 CNS
NCI-H23 lung = test system: NCI-H23 lung
A498 renal = test system: A498 renal
HCT-15 colon = test system: HCT-15 colon
CCRF-CEM leukemia = test system: CCRF-CEM leukemia
ACHN renal = test system: ACHN renal
HT29 colon = test system: HT29 colon
SW-620 colon = test system: SW-620 colon
CAKI-1 renal = test system: CAKI-1 renal
MDA-MB-231 breast = test system: MDA-MB-231 breast
HOP-62 NSCLC = test system: HOP-62 NSCLC
HOP-92 NSCLC = test system: HOP-92 NSCLC
T-47D breast = test system: T-47D breast
NCI-H522 lung = test system: NCI-H522 lung
SNB-75 CNS = test system: SNB-75 CNS
SK-MEL-2 melanoma = test system: SK-MEL-2 melanoma

Compound: O=[N+]([O-])/C(C(Cl)=C(Cl)Cl)=C1\NCCS1
- TGI (SK-OV-3 ovarian): > 100 µM
- TGI (NCI/ADR-RES ovarian): > 100 µM
- TGI (OVCAR-5 ovarian): > 100 µM
- TGI (MOLT-4 leukemia): 62.4 µM
- TGI (HCC-2998 colon): > 100 µM
- TGI (SF-268 CNS): > 100 µM
- TGI (SNB-19 CNS): > 100 µM
- TGI (KM12 colon): > 100 µM
- TGI (OVCAR-8 ovarian): > 100 µM
- TGI (SK-MEL-28 melanoma): > 100 µM
- TGI (U251 CNS): > 100 µM
- TGI (DU-145 prostate): > 100 µM
- TGI (HS 578T breast): > 100 µM
- TGI (SK-MEL-5 melanoma): > 100 µM
- TGI (LOX IMVI melanoma): 44.1 µM
- TGI (OVCAR-3 ovarian): > 100 µM
- TGI (NCI-H460 lung): > 100 µM
- TGI (BT-549 breast): > 100 µM
- TGI (OVCAR-4 ovarian): > 100 µM
- TGI (NCI-H226 lung): > 100 µM
- TGI (MCF7 breast): > 100 µM
- TGI (MDA-MB-435): > 100 µM
- TGI (RPMI-8226 leukemia): 54.5 µM
- TGI (COLO 205 colon): > 100 µM
- TGI (M14 melanoma): > 100 µM
- TGI (HL-60(TB) leukemia): 48.3 µM
- TGI (IGROV1 ovarian): > 100 µM
- TGI (UACC-257 melanoma): > 100 µM
- TGI (MALME-3M melanoma): 92.6 µM
- TGI (PC-3 prostate): > 100 µM
- TGI (SF-295 CNS): > 100 µM
- TGI (K-562 leukemia): 41.4 µM
- TGI (786-0 renal): > 100 µM
- TGI (SN12C renal): > 100 µM
- TGI (SR leukemia): 46.4 µM
- TGI (A549 NSCLC): > 100 µM
- TGI (UACC-62 melanoma): > 100 µM
- TGI (UO-31 renal): > 100 µM
- TGI (HCT-116 colon): > 100 µM
- TGI (EKVX NSCLC): > 100 µM
- TGI (RXF 393 renal): 58.8 µM
- TGI (TK-10 renal): > 100 µM
- TGI (SF-539 CNS): > 100 µM
- TGI (NCI-H23 lung): > 100 µM
- TGI (A498 renal): > 100 µM
- TGI (HCT-15 colon): > 100 µM
- TGI (CCRF-CEM leukemia): 46.2 µM
- TGI (ACHN renal): > 100 µM
- TGI (HT29 colon): > 100 µM
- TGI (SW-620 colon): > 100 µM
- TGI (CAKI-1 renal): > 100 µM
- TGI (MDA-MB-231 breast): > 100 µM
- TGI (HOP-62 NSCLC): > 100 µM

Compound: Cc1c2c(nn1-c1ccc(S/N=C3\SCC(=O)CN3Cc3ccccc3)cc1)-c1ccccc1CC2
- GI50 (SK-OV-3 ovarian): 88.9 µM
- TGI (SK-OV-3 ovarian): > 100 µM
- GI50 (HOP-92 NSCLC): > 100 µM
- TGI (HOP-92 NSCLC): > 100 µM
- GI50 (NCI/ADR-RES ovarian): 39.2 µM
- TGI (NCI/ADR-RES ovarian): > 100 µM
- GI50 (T-47D breast): 82.9 µM
- TGI (T-47D breast): > 100 µM
- GI50 (OVCAR-5 ovarian): > 100 µM
- TGI (OVCAR-5 ovarian): > 100 µM
- GI50 (MOLT-4 leukemia): 9.62 µM
- TGI (MOLT-4 leukemia): > 100 µM
- GI50 (HCC-2998 colon): 72.9 µM
- TGI (HCC-2998 colon): > 100 µM
- GI50 (SF-268 CNS): 17.6 µM
- TGI (SF-268 CNS): 46.1 µM
- GI50 (SNB-19 CNS): > 100 µM
- TGI (SNB-19 CNS): > 100 µM
- GI50 (KM12 colon): 60.1 µM
- TGI (KM12 colon): > 100 µM
- GI50 (OVCAR-8 ovarian): 41 µM
- TGI (OVCAR-8 ovarian): > 100 µM
- GI50 (SK-MEL-28 melanoma): 24.6 µM
- TGI (SK-MEL-28 melanoma): 62.4 µM
- GI50 (U251 CNS): 21.8 µM
- TGI (U251 CNS): 78.9 µM
- GI50 (DU-145 prostate): 50.5 µM
- TGI (DU-145 prostate): > 100 µM
- GI50 (SK-MEL-5 melanoma): 9.08 µM
- TGI (SK-MEL-5 melanoma): 29.5 µM
- GI50 (LOX IMVI melanoma): 10.7 µM
- TGI (LOX IMVI melanoma): 25 µM
- GI50 (NCI-H522 lung): 22.6 µM
- TGI (NCI-H522 lung): 59.7 µM
- GI50 (OVCAR-3 ovarian): 25.2 µM
- TGI (OVCAR-3 ovarian): 68.3 µM
- GI50 (NCI-H460 lung): 29.4 µM
- TGI (NCI-H460 lung): > 100 µM
- GI50 (BT-549 breast): 22.5 µM
- TGI (BT-549 breast): 54.7 µM
- GI50 (OVCAR-4 ovarian): 96.7 µM
- TGI (OVCAR-4 ovarian): > 100 µM
- GI50 (NCI-H226 lung): 38.5 µM
- TGI (NCI-H226 lung): > 100 µM
- GI50 (MCF7 breast): 3.74 µM
- TGI (MCF7 breast): 35 µM
- GI50 (MDA-MB-435): 20.6 µM
- TGI (MDA-MB-435): 48.5 µM
- GI50 (RPMI-8226 leukemia): 31.1 µM
- TGI (RPMI-8226 leukemia): > 100 µM
- GI50 (COLO 205 colon): 63.4 µM
- TGI (COLO 205 colon): > 100 µM
- GI50 (M14 melanoma): 46.5 µM
- TGI (M14 melanoma): > 100 µM
- GI50 (HL-60(TB) leukemia): 34.1 µM
- TGI (HL-60(TB) leukemia): > 100 µM
- GI50 (IGROV1 ovarian): 24 µM
- TGI (IGROV1 ovarian): > 100 µM
- GI50 (UACC-257 melanoma): 38.2 µM
- TGI (UACC-257 melanoma): > 100 µM
- GI50 (MALME-3M melanoma): 41.4 µM
- TGI (MALME-3M melanoma): 82.7 µM
- GI50 (PC-3 prostate): 27.7 µM
- TGI (PC-3 prostate): > 100 µM
- GI50 (SF-295 CNS): 25.7 µM
- TGI (SF-295 CNS): 91.5 µM
- GI50 (K-562 leukemia): 30.1 µM
- TGI (K-562 leukemia): > 100 µM
- GI50 (786-0 renal): 89.2 µM
- TGI (786-0 renal): > 100 µM
- GI50 (SN12C renal): 26.7 µM
- TGI (SN12C renal): 99.7 µM
- GI50 (SR leukemia): 8.35 µM
- TGI (SR leukemia): > 100 µM
- GI50 (A549 NSCLC): 46.7 µM
- TGI (A549 NSCLC): > 100 µM
- GI50 (UACC-62 melanoma): 28.3 µM
- TGI (UACC-62 melanoma): > 100 µM
- GI50 (SNB-75 CNS): 75.9 µM
- TGI (SNB-75 CNS): > 100 µM
- GI50 (UO-31 renal): 64.3 µM
- TGI (UO-31 renal): > 100 µM
- GI50 (EKVX NSCLC): 46.6 µM
- TGI (EKVX NSCLC): > 100 µM
- GI50 (RXF 393 renal): 22.6 µM
- TGI (RXF 393 renal): 54.7 µM
- GI50 (TK-10 renal): 50.4 µM
- TGI (TK-10 renal): > 100 µM
- GI50 (SF-539 CNS): 29.5 µM
- TGI (SF-539 CNS): 58.2 µM
- GI50 (NCI-H23 lung): 49.8 µM
- TGI (NCI-H23 lung): > 100 µM
- GI50 (HCT-15 colon): 31.7 µM
- TGI (HCT-15 colon): > 100 µM
- GI50 (CCRF-CEM leukemia): 6.45 µM
- TGI (CCRF-CEM leukemia): > 100 µM
- GI50 (ACHN renal): 32.9 µM
- TGI (ACHN renal): > 100 µM
- GI50 (HT29 colon): 51.5 µM
- TGI (HT29 colon): > 100 µM
- GI50 (SW-620 colon): 25.5 µM
- TGI (SW-620 colon): > 100 µM
- GI50 (CAKI-1 renal): 26.6 µM
- TGI (CAKI-1 renal): 87.6 µM
- GI50 (MDA-MB-231 breast): 24.8 µM
- TGI (MDA-MB-231 breast): 87.3 µM
- GI50 (HOP-62 NSCLC): > 100 µM
- TGI (HOP-62 NSCLC): > 100 µM
- GI50 (SK-MEL-2 melanoma): 58.2 µM
- TGI (SK-MEL-2 melanoma): > 100 µM

Reference: PubChem BioAssay (NCI)
